The values below are quoted from earlier work in patent US7288243B2, “Aerosol drug inhibition of lung metastases” (Research Development Foundation, priority 2002, dated 2007).

Molecules are shown by their SMILES.

For the series the following is noted: concurrent administration of cyclosporin; clinical studies.

Take `CC(=O)O[C@H]1C(=O)[C@@]2(C)[C@H]([C@H](OC(=O)c3ccccc3)[C@]3(O)C[C@H](OC(=O)[C@H](O)[C@@H](NC(=O)c4ccccc4)c4ccccc4)C(C)=C1C3(C)C)[C@]1(OC(C)=O)CO[C@@H]1C[C@@H]2O` [paclitaxel]: the “Increase of bioavailability of paclitaxel administered orally” value is 9 fold.
